US9861640B2, “Medicament for treatment of Alzheimer's disease” (KEMPHYS LTD., priority 2013, dated 2018)

Experiments:
[1] = tested on: RA response element (RARE); assay: RARE luciferase reporter gene assay in Neuro2a cells; type: cell-based, mouse; settings: Am80 0.2-5 μM, with or without HX630 5 μM, 24 h
Method: Since the effective concentration of Am80 in vivo has not been determined, we considered that a relatively high concentration of Am80 should be used in the in vitro study in order to ensure adequate stimulation. […] Moreover, the combination of HX630 (5 μM) with Am80 in the range of 0.2-5 μM also had little effect. Therefore, the concentrations of Am80 and HX630 were both set at 5 μM for the in vitro study.
Neuro2a cells were seeded in 24-well plates (2×10^5 cells/well) and transfected with 0.2 μg of pGL3-RARE-Luc (#13468; Addgene) or pGL3-Luc vector (Promega) and 0.05 μg of Renilla luciferase vector (phRL-TK) (Promega), using Effectene reagent (Qiagen) according to the manufacturer's protocol. Five hours after transfection, cells were exposed to Am80 (5 μM) and/or HX630 (5 μM) in the medium for 24 h. Luciferase activities were determined in cell lysates. Firefly luciferase activity was normalized to that of Renilla luciferase for each well.

Aβ40 and Aβ42 = Aβ40 and Aβ42 sandwich ELISA of TBS-soluble and TBS-insoluble brain fractions; type: in vivo, mouse; settings: Am80 alone 3 mg/kg/d or 6 mg/kg/d for 17 days, oral
Method: APP23 mice begin forming amyloid deposits when they are 6 months old, but memory deficits in the MWM test appear quite early (before 3 months of age). Here, we used 8.5-month-old male APP23 mice and their WT littermates (C57BL/6J). We used stratified random sampling to divide mice (four to six per cage) into four groups to equalize the mean body weight of the study groups: mice given 0.5 mg/kg/d Am80, those given 5 mg/kg/d HX630, those given the mixture of 0.5 mg/kg/d Am80 and 5 mg/kg/d HX630, and those given the vehicle. […]
The TBS-soluble (TBS-extractable) fraction and the TBS-insoluble (but guanidine HC1-extractable) fraction from the cerebral hemispheres or hippocampus were prepared as described previously. The amounts of Aβ40 and Aβ42 in each fraction were determined by using sandwich ELISAs (294-64701 and 290-62601 (Wako), respectively), according to the manufacturer's instructions. The amounts of tumor necrosis factor-α (TNF-α) and IL-4 in the TBS-soluble fractions of cerebral cortex and hippocampus were analyzed by means of sandwich ELISAs KMC3012 (Invitrogen) and ELM-IL-4-001 (RayBiotech, Inc., Norcros, Ga., USA), respectively, according to the manufacturer's instructions. Protein concentrations were determined with the Bradford Protein Assay Reagent (Thermo Fisher Scientific Inc., Rockford, Ill., USA), with BSA as the standard.

Ide mRNA = assay: Quantitative RT-PCR of Ide mRNA in brains of APP23 mice; type: in vivo, mouse; settings: day 18, vs vehicle, Am80/HX630 P<0.05, HX630 P=0.062 (not significant)
Method: APP23 mice begin forming amyloid deposits when they are 6 months old, but memory deficits in the MWM test appear quite early (before 3 months of age). Here, we used 8.5-month-old male APP23 mice and their WT littermates (C57BL/6J). We used stratified random sampling to divide mice (four to six per cage) into four groups to equalize the mean body weight of the study groups: mice given 0.5 mg/kg/d Am80, those given 5 mg/kg/d HX630, those given the mixture of 0.5 mg/kg/d Am80 and 5 mg/kg/d HX630, and those given the vehicle. Am80 and HX630 were suspended in 0.5% (w/v) carboxymethylcellulose solution and were orally administered to mice at 0.5 mg/kg (Am80) or 5 mg/kg (HX630) for 17 consecutive days (once daily at 18:00). Control animals received the same volume of 0.5% (w/v) carboxymethylcellulose solution orally, without the other compounds. We set the 0.5 mg/kg/d dose for Am80 on the basis that this had been found effective in other in vivo studies, such as those by Kawahara et al. and Ishido and Shudo [37]. […]
Total RNA from the cerebral hemispheres, hippocampus, or MG5 cells was prepared by guanidinium thiocyanate-phenol-chloroform extraction. […] Quantitative real-time PCRs were carried out by using the LightCycler 1.5 system (Roche, Mannheim, Germany) with the FastStart DNA Master SYBR Green I LightCycler kit (Roche). […]

CC1(C)CCC(C)(C)c2cc(NC(=O)c3ccc(C(=O)O)cc3)ccc21 [Am80, 4-{(5,6,7,8-tetrahydro-5,5,8,8-tetramethyl-2-naphthalenyl)carbamoyl}benzoic acid]
RARE-luciferase activity in Neuro2a cells [1]: hardly altered | Aβ levels in APP23 mice, higher dose (Aβ40 and Aβ42): neither reduced Aβ levels

CN1c2ccccc2N=C(c2ccc(C(=O)O)cc2)c2cc3c(cc21)C(C)(C)CCC3(C)C [HX630, 4-[5H-2,3-(2,5dimethyl-2,5-hexano)-5-methyldibenzo[b,e]-diazepin-11-yl]benzoic acid]
Ide mRNA level in brain (Ide mRNA): slight increase
